In patent publication US9451768B2, “Biocidal compositions and methods of use” (priority 2009, dated 2016):

Legend:
[1] = tested on: oil field isolated anaerobic SRB consortium; test: MBC against anaerobic SRB consortium, 40° C., 24 hour (Example 1); assay type: cell-based, anaerobic sulfate-reducing bacteria (SRB)
Procedure: (§1) The synergy indexes reported in the following examples are calculated using the following equation: Synergy Index=Ca/CA+Cb/CB
(§2) Various methods known to those skilled in the art can be used for evaluating biocidal efficacy. In the examples below, aliquots of the treated samples are removed at predetermined time points and the concentration required to achieve a certain level or complete bacterial kill is determined by culture-based methods including serial dilution. In some examples, the method is based or adapted (e.g., for high temperature testing or for the presence of sulfide) from the methodology described in international application PCT/US08/075,755, filed Sep. 10, 2008, which is incorporated herein by reference.
Inside an anaerobic chamber, a deaerated sterile salt solution (3.1183 g of NaCl, 1.3082 mg of NaHCO3, 47.70 mg of KCl, 72.00 mg of CaCl2, 54.49 mg of MgSO4, 172.28 mg of Na2SO4, 43.92 mg of Na2CO3 in 1 L water) is contaminated with an oil field isolated anaerobic SRB consortium at final bacterial concentrations of 10^6-10^7 CFU/mL. Aliquots of this contaminated water are then treated with biocide solution (single or in combination) at various concentrations.

[2] = tested on: Psedomonas aeruginosa ATCC 10145 and Staphylococcus aureus ATCC 6538; test: MBC against aerobic bacteria, 37° C., 24 hour (Example 2); assay type: cell-based
Procedure: as §1, §2
A sterile NaCl solution (0.85%) is contaminated with Psedomonas aeruginosa ATCC 10145 and Staphylococcus aureus ATCC 6538 at a final bacterial concentration of ˜10^6 CFU/ml. Aliquots of this contaminated water are then treated with biocide solution (single or in combination) at various concentrations.

[3] = tested on: mixed bacteria consortium (Pseudomonas aeruginosa ATCC 10145, Pseudomonas aeruginosa ATCC 15422, Enterobacter aerogenes ATCC 13048, Escherichia coli ATCC …); test: Re-challenge test against aerobic mixed bacteria consortium (Example 3); assay type: cell-based; conditions: ambient temperature; for Dose required for ≧4 log10 bacteria reduction (ppm), DBNPA: DBNPA alone or DBNPA part of DBNPA/CTAC combination; for Dose required for ≧4 log10 bacteria reduction (ppm), CTAC: CTAC alone or CTAC part of DBNPA/CTAC combination
Procedure: as §1, §2
(§3) DBNPA and CTAC is added to a sterile solution of synthetic surface water (CaCl2 0.2203 g, MgSO4 0.1847 g, NaHCO3 0.1848 g, DI water 1 L) both alone and in various combinations. An initial inoculum of a mixed bacteria consortium (Pseudomonas aeruginosa ATCC 10145, Pseudomonas aeruginosa ATCC 15422, Enterobacter aerogenes ATCC 13048, Escherichia coli ATCC 11229, Klebsiella pneumoniae ATCC 8308, Staphylococcus aureus ATCC 6538, Salmonella choleraesuis ATCC 10708) is added to each biocidal solution at a final concentration of 5×10^6 CFU/mL. After 2, 6 and 13 days, the biocidal solutions are re-challenged with the same bacteria consortium to a final concentration of 5×10^4 CFU/mL of additional bacteria. All treatments are incubated at ambient temperatures. The results are shown in Table 7 which reports the biocide concentrations required to achieve a ≧4 log10 kill reduction in microorganisms.

[4] = tested on: oil field isolated anaerobic SRB consortium; test: Anaerobic bacteria under sulfide-rich and multiple challenge conditions (Example 4); assay type: cell-based, anaerobic sulfate-reducing bacteria (SRB); conditions: room temperature, daily challenge with SRB and 10 ppm sulfide ion
Procedure: as §1
as §2, with “10, 2008, which is incorporated herein by reference.” left out
Inside an anaerobic chamber, biocide solutions of DBNPA, CTAC, and DBNPA/CTAC combinations at various concentrations are prepared in a salt solution (3.1183 g of NaCl, 1.3082 mg of NaHCO3, 47.70 mg of KCl, 72.00 mg of CaCl2, 54.49 mg of MgSO4, 172.28 mg of Na2SO4, 43.92 mg of Na2CO3 in 1 L water). […] The viable bacteria left in the mixtures is determined at different incubation times up to 7 days, using a serial dilution method. Bacterial log reduction is then calculated. The biocidal efficacy is determined by selecting the lowest biocide concentration required to achieve at least a 99.9% bacterial reduction for all three of the following time points: 2 hour, 1 day, and 7 days. Synergy index is then calculated.

[5] = tested on: oil field isolated anaerobic SRB consortium; test: Anaerobic bacteria under high temperature, sulfide-rich and re-challenge conditions (Example 5); assay type: cell-based, anaerobic sulfate-reducing bacteria (SRB); conditions: 80° C., daily challenge with SRB and 10 ppm sulfide ion
Procedure: as §1, §2
Inside an anaerobic chamber, biocide solutions of DBNPA, CTAC, and DBNPA/CTAC combinations at various concentrations are prepared in a salt solution (3.1183 g of NaCl, 1.3082 mg of NaHCO3, 47.70 mg of KCl, 72.00 mg of CaCl2, 54.49 mg of MgSO4, 172.28 mg of Na2SO4, 43.92 mg of Na2CO3 in 1 L water). […] After heating at 80 C for 2 hours, biocidal efficacy is evaluated against the field SRB consortium at 40° C. for 2 h. The same samples, after heating for 1 day to 7 days at 80 C, are evaluated against the field SRB consortium at 40 C for 24 h. […]

[6] = tested on: mixed bacteria consortium (Pseudomonas aeruginosa ATCC 10145, Pseudomonas aeruginosa ATCC 15422, Enterobacter aerogenes ATCC 13048, Escherichia coli ATCC …); test: Ternary DBNPA, CTAC and bronopol combination, re-challenge test against mixed bacteria consortium (Example 6); assay type: cell-based, mixed aerobic bacteria; conditions: for Dose required for >4 log10 bacterial reduction vs. control, DBNPA: DBNPA alone or DBNPA part of DBNPA:bnpd:CTAC combination; for Dose required for >4 log10 bacterial reduction vs. control, CTAC: CTAC alone or CTAC part of DBNPA:bnpd:CTAC combination; for Dose required for >4 log10 bacterial reduction vs. control, bnpd: bnpd alone or bnpd part of DBNPA:bnpd:CTAC combination
Procedure: as §1, §2
as §3, with “DBNPA, bronopol, and” for “DBNPA and”, “CTAC are” for “CTAC is”, “g, deionized” for “g, DI”, “Table 10” for “Table 7”

[7] = HHT alone or HHT part of DBNPA/HHT combination
[8] = DBNPA alone or DBNPA part of DBNPA/CTAC combination
[9] = DBNPA alone or DBNPA part of DBNPA/HHT combination
[10] = DBNPA alone or DBNPA part of DBNPA/tris nitro combination
[11] = Day 3 after initial inoculation
[12] = Day 20 after initial inoculation
[13] = Day 27 after initial inoculation
[14] = CTAC alone or CTAC part of DBNPA/CTAC combination
[15] = tris nitro alone or tris nitro part of DBNPA/tris nitro combination

`OCCN1CN(CCO)CN(CCO)C1` [HHT, hexahydro-1,3,5-tris(2-hydroxyethyl)-s-triazine] was tested, and the “Dosage required for complete bacterial reduction (ppm), HHT” value [1, 7] was 113.8 ppm and the “Dosage required for complete bacterial reduction (ppm), HHT” value [2, 7] was 94.2 ppm.

`N#CC(Br)(Br)C(N)=O` [DBNPA, 2,2-dibromo-3-nitrilopropionamide] was tested, and the “Dosage required for complete bacterial reduction (ppm), DBNPA” value [1, 8] was 9.1 ppm, the “Dosage required for complete bacterial reduction (ppm), DBNPA” value [1, 9] was 7.0 ppm and the “Dosage required for complete bacterial reduction (ppm), DBNPA” value [1, 10] was 8.9 ppm. The “Dosage required for complete bacterial reduction (ppm), DBNPA” value [2, 8] was 8.9 ppm, the “Dosage required for complete bacterial reduction (ppm), DBNPA” value [2, 9] was 8.9 ppm and the “Dosage required for complete bacterial reduction (ppm), DBNPA” value [2, 10] was 9.9 ppm. For the same compound, the “Dose required for ≧4 log10 bacteria reduction (ppm), DBNPA” value [3, 11] was greater than 167 ppm, the “Dose required for ≧4 log10 bacteria reduction (ppm), DBNPA” value [3, 12] was greater than 250 ppm and the “Lowest biocide concentration required for ≧99.9% bacterial reduction for 2 h, 1 day, and 7 days (ppm), DBNPA” value [4, 8] was 60.0 ppm. For the same compound, the “Lowest biocide concentration required for ≧99.9% bacterial reduction for 2 h, 1 day, and 7 days (ppm), DBNPA” value [5, 8] was greater than 120 ppm, the “Dose required for >4 log10 bacterial reduction vs. control, DBNPA” value [6, 11] was less than 12 and the “Dose required for >4 log10 bacterial reduction vs. control, DBNPA” value [6, 13] was greater than 75.

`ClC=CC[N+]12CN3CN(CN(C3)C1)C2` [CTAC, 1-(3-chloroallyl)-3,5,7-triaza-1-azoniaadamantane] was tested, and the “Dosage required for complete bacterial reduction (ppm), CTAC” value [1, 14] was 87.5 ppm, the “Dosage required for complete bacterial reduction (ppm), CTAC” value [2, 14] was greater than 159 ppm and the “Dose required for ≧4 log10 bacteria reduction (ppm), CTAC” value [3, 11] was greater than 750 ppm. For the same compound, the “Dose required for ≧4 log10 bacteria reduction (ppm), CTAC” value [3, 12] was greater than 750 ppm, the “Lowest biocide concentration required for ≧99.9% bacterial reduction for 2 h, 1 day, and 7 days (ppm), CTAC” value [4, 14] was greater than 360.0 ppm and the “Lowest biocide concentration required for ≧99.9% bacterial reduction for 2 h, 1 day, and 7 days (ppm), CTAC” value [5, 14] was 180 ppm. The “Dose required for >4 log10 bacterial reduction vs. control, CTAC” value [6, 11] was greater than 750 and the “Dose required for >4 log10 bacterial reduction vs. control, CTAC” value [6, 13] was greater than 750.

For `O=[N+]([O-])C(CO)(CO)CO` [tris nitro, tris(hydroxymethyl)nitromethane], the “Dosage required for complete bacterial reduction (ppm), tris nitro” value [1, 15] was 29.6 ppm and the “Dosage required for complete bacterial reduction (ppm), tris nitro” value [2, 15] was 104.6 ppm.

In the case of `O=[N+]([O-])C(Br)(CO)CO` [bnpd, 2-bromo-2-nitropropane-1,3-diol], the “Dose required for >4 log10 bacterial reduction vs. control, bnpd” value [6, 11] is reported as 32 and the “Dose required for >4 log10 bacterial reduction vs. control, bnpd” value [6, 13] is reported as greater than 200.
